# In US20210267977A1, “C[…] AFTER 5HT2A AGONISTS ADMINISTRATION” (Universitätsspital Basel, priority 2020, published 2021):
# Read-outs that look alike come from different tables or passages of the source.
# Tests used:
# [1] = Example 2 clinical study: plasma LSD pharmacokinetics; settings: ketanserin 40 mg before 200 μg LSD, one-compartment model
# Procedure: The blood samples were immediately centrifuged, and the plasma was subsequently stored at −80° C. until analysis.
# healthy subjects [2] = test: Example 3 clinical study: cardiovascular and adverse effects (List of Complaints); settings: for total of reported complaints on the LC list (mean±SEM): up to 12 hours after LSD
# Procedure: (§1) Study design: The study used a double-blind, placebo-controlled, random-order 2-period cross-over design with 2 treatment conditions: 1) 100 μg LSD+ketanserin (40 mg) and 2) 100 μg LSD+placebo. Ketanserin or placebo was administered 1 hour after LSD. The washout periods between sessions were at least 10 days. The study was registered at ClinicalTrials.gov (NCT04558294).
# (§2) Participants: Healthy subjects (men and women) were recruited. Participants who were younger than 25 years old were excluded from participating in the study. Additional exclusion criteria were age >65 years, pregnancy (urine pregnancy test at screening and before each test session), personal or family (first-degree relative) history of major psychiatric disorders (assessed by the Semi-structured Clinical Interview for Diagnostic and Statistical Manual of Mental Disorders, 4th edition, Axis I disorders by a trained psychiatrist), the use of medications that may interfere with the study medications (e.g. antidepressants, antipsychotics, sedatives), chronic or acute physical illness (abnormal physical exam, electrocardiogram, or hematological and chemical blood analyses), tobacco smoking (>10 cigarettes/day), lifetime prevalence of illicit drug use >10 times (except for Δ^9-tetrahydrocannabinol), illicit drug use within the last 2 months, and illicit drug use during the study (determined by urine drug tests).
# (§3) Study drugs: LSD (D-lysergic acid diethylamide base, high-performance liquid chromatography purity >99%; Lipomed AG, Arlesheim, Switzerland) was administered as an oral solution in units containing 100 μg LSD in 1 mL of 96% ethanol (Holze et al., 2019). Ketanserin was obtained as the marketed drug (KETENSIN® (Janssen)) and encapsulated with opaque capsules to ensure blinding. Ketanserin placebo consisted of identical opaque capsules filled with mannitol.
# (§4) Study procedures: The study included a screening visit, two 13 hour test sessions (7:00 AM-8:00 PM), and an end-of-study visit. LSD was administered at 8:00 AM. Ketanserin (40 mg) or placebo was administered at 9:00 AM. The outcome measures were repeatedly assessed for 12 hours after LSD administration.
# Subjective drug effects: Subjective effects were assessed repeatedly using visual analog scales (VASs) 0, 0.5, 1, 1.5, 2, 2.5, 3, 3.5, 4, 5, 6, 7, 8, 9, 10, 11, and 12 hours after LSD administration. […] Autonomic, adverse, and endocrine effects: Blood pressure, heart rate, and tympanic body temperature were repeatedly measured 1 hour before and 0, 0.5, 1, 1.5, 2.5, 3, 3.5, 4, 5, 6, 7, 8, 9, 10, 11, and 12 hours after LSD administration as previously described in detail (Hysek et al., 2010). Adverse effects were systematically assessed up to 12 hours after drug administration using the 66-item List of Complaints (Zerssen, 1976).
# healthy subjects [3] = test: Example 2 clinical study: autonomic and adverse effects (blood pressure, heart rate, body temperature, List of Complaints); settings: ketanserin 40 mg before 200 μg LSD
# Source text: The washout periods between sessions were at least 10 days. The study was registered at ClinicalTrials.gov (NCT03321136).
# as §2, with “Participants” for “Participants: Healthy subjects (men and women) were recruited. Participants”, “tests). […]” for “tests).”
# Ketanserin (40 mg) or placebo was administered at 8:00 AM. […] The outcome measures were repeatedly assessed for 24 hours.
# Autonomic, adverse, and endocrine effects: Blood pressure, heart rate, and tympanic body temperature were repeatedly measured 1 hour before and 0, 0.5, 1, 1.5, 2.5, 3, 4, 5, 6, 7, 8, 9, 10, 11, 12, 14, 16, and 24 hours after drug administration as previously described in detail (Hysek et al., 2010). Adverse effects were systematically assessed 1 hour before and 12 and 24 hours after drug administration using the 66-item List of Complaints (Zerssen, 1976).
# Data analysis: Peak (Emax and/or Emin) or peak change from baseline (ΔEmax) values were determined for repeated measures. The values were then analyzed using repeated-measures analysis of variance (ANOVA), with drug as within-subjects factor, followed by Tukey post hoc comparisons using Statistica 12 software (StatSoft, Tulsa, Okla., USA). […]
# healthy subjects [4] = test: Example 3 clinical study: subjective drug effects (VAS, 5D-ASC), ketanserin or placebo 1 hour after LSD; settings: for duration of action of LSD: three subjects
# Procedure: as §1, §2, §3, §4
# Subjective drug effects: Subjective effects were assessed repeatedly using visual analog scales (VASs) 0, 0.5, 1, 1.5, 2, 2.5, 3, 3.5, 4, 5, 6, 7, 8, 9, 10, 11, and 12 hours after LSD administration. The VASs were presented as 100-mm horizontal lines (0-100%), marked from “not at all” on the left to “extremely” on the right. The 5D-ASC scale (Dittrich, 1998; Studerus et al., 2010) was administered 12 hours after LSD administration to retrospectively rate alterations in waking consciousness induced by the drugs. Autonomic, adverse, and endocrine effects: Blood pressure, heart rate, and tympanic body temperature were repeatedly measured 1 hour before and 0, 0.5, 1, 1.5, 2.5, 3, 3.5, 4, 5, 6, 7, 8, 9, 10, 11, and 12 hours after LSD administration as previously described in detail (Hysek et al., 2010). Adverse effects were systematically assessed up to 12 hours after drug administration using the 66-item List of Complaints (Zerssen, 1976).
# healthy subjects [5] = test: Example 2 clinical study: subjective drug effects (VAS, AMRS, 5D-ASC, MEQ), ketanserin before LSD; type: in vivo, human; settings: 16 subjects
# Procedure: The study was registered at ClinicalTrials.gov (NCT03321136).
# 100 μg LSD/100 μg LSD). […] Placebo consisted of identical opaque capsules filled with mannitol.
# LSD or placebo was administered at 9:00 AM. The outcome measures were repeatedly assessed for 24 hours.
# The VASs for “concentration”, and “perception of time” were bidirectional (±50%). Marked from “not at all” on the left (−50), to “normal” in the middle (0), to “extremely” on the right (+50) for concentration and “slowed” (−50) and “racing” (+50) for “perception of time”. […] Mystical experiences were assessed using the German version (Liechti et al., 2017) of the 100-item States of Consciousness Questionnaire (SOCQ) (Griffiths et al., 2006) that includes the 43-item and newer 30-item MEQ (MEQ43 (Griffiths et al., 2006) and MEQ30 (Barrett et al., 2015)). The 60-item Adjective Mood Rating Scale (AMRS) (Janke & Debus, 1978) was administered 1 hour before and 3, 6, 9, 12, and 24 hours after drug administration.
# The criterion for significance was p<0.05.
# 5HT2A receptor = target: T1, 5HT2A receptor (Homo sapiens, UniProt P28223); settings: cited from earlier work
# T1 construct: ketanserin (40 mg orally) 1 hour prior to the oral administration of LSD; host or cells: human subjects (in vivo, endogenous receptor)
# humans = settings: cited from earlier work
# [6] = 100 μg LSD + ketanserin 40 mg 1 hour after
# [7] = ketanserin 40 mg 1 hour after 100 μg LSD
# [8] = ketanserin 40 mg before 200 μg LSD, reduced to the level of 25 μg LSD
# T1 sequence (P28223 whole entry): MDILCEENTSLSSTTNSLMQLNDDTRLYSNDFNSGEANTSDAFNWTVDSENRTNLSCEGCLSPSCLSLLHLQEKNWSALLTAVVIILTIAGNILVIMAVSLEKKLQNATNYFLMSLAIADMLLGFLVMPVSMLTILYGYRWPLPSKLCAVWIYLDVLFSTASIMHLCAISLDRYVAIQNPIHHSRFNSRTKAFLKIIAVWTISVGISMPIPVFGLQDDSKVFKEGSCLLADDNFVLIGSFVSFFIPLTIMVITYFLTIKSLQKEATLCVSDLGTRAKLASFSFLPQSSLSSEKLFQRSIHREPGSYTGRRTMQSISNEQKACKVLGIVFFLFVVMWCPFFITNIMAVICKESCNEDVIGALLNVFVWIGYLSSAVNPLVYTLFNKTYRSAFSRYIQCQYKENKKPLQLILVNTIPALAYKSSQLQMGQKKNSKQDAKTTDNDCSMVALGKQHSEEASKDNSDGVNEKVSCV
compound,measurement,setting,value
O=C(c1ccc(F)cc1)C1CCN(CCn2c(=O)[nH]c3ccccc3c2=O)CC1 [ketanserin],effect on the PK of 200 μg LSD,[1],only minimally altered
same,total of reported complaints on the LC list (mean±SEM),healthy subjects [2]; 100 μg LSD + ketanserin 40 mg,8.3±4
same,"cardiovascular effects of LSD (blood pressure, heart rate, body temperature)",healthy subjects [2]; ketanserin 40 mg 1 hour after 100 μg LSD compared with placebo,no relevant effects on the cardiovascular effects of LSD
same,diastolic blood pressure,"healthy subjects [2]; ketanserin 40 mg 1 hour after 100 μg LSD, needing further study",transient decrease in diastolic blood pressure
same,acute adverse effects of 200 μg LSD (List of Complaints),healthy subjects [3],significantly prevented
same,LSD response on blood pressure,healthy subjects [3]; 16 subjects,transiently reduced the LSD response on blood pressure only up to 6 hours
same,LSD-induced heart rate response,healthy subjects [3]; 16 subjects,significantly prevented
same,total 3D-OAV score,healthy subjects [4]; [6],24%
same,duration of action of LSD,healthy subjects [4]; [6],4 h
same,"set-in of the ketanserin effect on the subjective response to LSD, time after ketanserin administration",healthy subjects [4]; [7],1 h
same,time to blockade of the LSD-typical effects,healthy subjects [4]; [7],within two hours
same,"typical mind altering effects of LSD on VAS (any drug effect, good drug effect, visual, auditory, synaesthetic, sense of time, ego-dissolution)",healthy subjects [4]; [7],very effectively reduced
same,reduction of the duration of action of LSD,healthy subjects [4]; ketanserin 40 mg 1 hour after 100 μg LSD vs placebo,approximately 60%
same,recurrence of the LSD effect,"healthy subjects [4]; ketanserin 40 mg 1 hour after 100 μg LSD, 12 hours observation",no recurrence of the LSD effect
same,nausea induced by LSD (VAS),"healthy subjects [4]; ketanserin 40 mg 1 hour after 100 μg LSD, more data needed",tended to reduce nausea
same,acute subjective psychedelic response to LSD,healthy subjects [4]; ketanserin 40 mg 1 hour after LSD base 100 μg,markedly shortened and also attenuated
same,feelings of tiredness (VAS),healthy subjects [4]; ketanserin 40 mg added to 100 μg LSD compared with placebo,increased feelings of tiredness
same,subjective feelings of stimulation (VAS),healthy subjects [4]; ketanserin 40 mg after 100 μg LSD compared with LSD alone,increased subjective feelings of stimulation
same,subjective effects of LSD on the 5D-ASC Scale,healthy subjects [4]; ketanserin 40 mg after 100 μg LSD in comparison with placebo,reduced the subjective effects of LSD
same,reduction of the total 3D-OAV score,healthy subjects [4]; ketanserin 40 mg after 100 μg LSD vs placebo,approximately 30%
same,LSD response on the AMRS,healthy subjects [5]; ketanserin 40 mg 1 hour before 200 μg LSD,"significantly prevented anxiety, introversion and emotional excitation"
same,overall subjective response to high-dose LSD,"healthy subjects [5]; ketanserin 40 mg 1 hour before 200 μg LSD, most P<0.001",reduced the subjective response to high-dose LSD approximately to the level of the 25 μg LSD dose
same,subjective effects on the 5D-ASC Scale,healthy subjects [5]; [8],significantly and markedly reduced
same,subjective effects on the MEQ and subscales 'Nadir' and 'Aesthetic experience' (SOCQ),healthy subjects [5]; [8],significantly and markedly reduced
same,effect on the LSD experience,"5HT2A receptor; ketanserin 40 mg orally 1 hour prior to LSD 200 μg, Liechti",similarly prevented the LSD experience
same,effect on the LSD experience,"5HT2A receptor; ketanserin 40 mg orally 1 hour prior to oral LSD 70-100 μg, Preller et al., 2017",prevent the LSD experience almost completely
"CCN(CC)C(=O)[C@@H]1C=C2c3cccc4[nH]cc(c34)C[C@H]2N(C)C1 [LSD, Lysergic acid diethylamide]",duration of subjective effects (mean±SD),"humans; 100 μg LSD, Holze et al., 2019, range: 5.3-12.8 hour",8.5 ± 2.0 h
same,duration of LSD effects,"humans; 100 μg dose, Dolder et al., 2017, range: 5-14 hours",8.2 ± 2.1 h
same,duration of LSD effects,"humans; 200 μg dose, Dolder et al., 2017, range: 7-19.5 hours",11.6 ± 1.7 h
same,total of reported complaints on the LC list (mean±SEM),healthy subjects [2]; 100 μg LSD + placebo,7±3.6
same,total 3D-OAV score,healthy subjects [4]; 100 μg LSD + placebo,34%
same,duration of action of LSD,healthy subjects [4]; 100 μg LSD + placebo 1 hour after,10 h
